# According to publication PMC12203311, “Design, synthesis, in silico and in vitro evaluation of pyrrole–indole hybrids as dual tubulin and aromatase inhibitors with potent anticancer activities” (RSC Advances, 2025):
# What was measured:
# MDA-MB-468 = experiment: NCI60 five-dose screen; format: cell-based; conditions: Homo sapiens, MDA-MB-468, breast cancer
# HCT-116 = experiment: NCI60 five-dose screen; format: cell-based; conditions: Homo sapiens, HCT-116, colon cancer
# COLO 205 = experiment: NCI60 five-dose screen; format: cell-based, human; conditions: Homo sapiens
# CAKI-1 = experiment: NCI60 five-dose screen; format: cell-based; conditions: Homo sapiens, CAKI-1, renal cancer
# RPMI-8226 = experiment: NCI60 five-dose screen; format: cell-based; conditions: Homo sapiens, RPMI-8226, leukemia
# CCRF-CEM = experiment: NCI60 five-dose screen; format: cell-based; conditions: Homo sapiens, leukemia
# ACHN = experiment: NCI60 five-dose screen; format: cell-based; conditions: Homo sapiens, renal cancer
# IGROV1 = experiment: NCI60 five-dose screen; format: cell-based; conditions: Homo sapiens, IGROV-1; IGROV1, ovarian cancer
# TK-10 = experiment: NCI60 five-dose screen; format: cell-based; conditions: Homo sapiens, TK-10, renal cancer
# SNB-75 = experiment: NCI60 five-dose screen; format: cell-based; conditions: Homo sapiens, SNB-75, CNS cancer
# UACC-62 = experiment: NCI60 five-dose screen; format: cell-based; conditions: Homo sapiens, UACC-62, melanoma
# SN12C = experiment: NCI60 five-dose screen; format: cell-based; conditions: Homo sapiens, renal cancer
# U251 = experiment: NCI60 five-dose screen; format: cell-based; conditions: Homo sapiens, U-251, U251, CNS cancer
# LOX IMVI = experiment: NCI60 five-dose screen; format: cell-based; conditions: Homo sapiens, melanoma
# SF-268 = experiment: NCI60 five-dose screen; format: cell-based; conditions: Homo sapiens, SF-268, CNS cancer
# SK-MEL-2 = experiment: NCI60 five-dose screen; format: cell-based; conditions: Homo sapiens, SK-MEL-2, melanoma
# OVCAR-3 = experiment: NCI60 five-dose screen; format: cell-based; conditions: Homo sapiens, OVCAR-3, ovarian cancer
# PC-3 = experiment: NCI60 five-dose screen; format: cell-based; conditions: Homo sapiens, PC-3, prostate cancer
# UO-31 = experiment: NCI60 five-dose screen; format: cell-based; conditions: Homo sapiens, UO-31, renal cancer
# HOP-62 = experiment: NCI60 five-dose screen; format: cell-based; conditions: Homo sapiens, HOP-62, NSC lung cancer
# OVCAR-5 = experiment: NCI60 five-dose screen; format: cell-based; conditions: Homo sapiens, OVCAR-5, ovarian cancer
# SK-MEL-28 = experiment: NCI60 five-dose screen; format: cell-based; conditions: Homo sapiens, SK-MEL-28, melanoma
# [1] = test system: T47D breast cancer cell line; experiment: Cytotoxicity MTT assay, T47D; format: cell-based, human; conditions: Homo sapiens, T47D; MTT, 48 hours
# Summary of the method: (§1)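 Both lines were handled identically: 10 000 cells per well, overnight growth, 48 h with compound at the chosen concentrations, then 0.5 mg mL^−1 MTT for 3 h. Dissolved formazan was quantified at 570 nm against vehicle-treated wells.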
# HT29 = experiment: NCI60 five-dose screen; format: cell-based; conditions: Homo sapiens, HT-29, HT29, colon cancer
# A498 = experiment: NCI60 five-dose screen; format: cell-based; conditions: Homo sapiens, A498, renal cancer
# [2] = test system: L929 normal mouse fibroblast cell line; experiment: Cytotoxicity MTT assay, L929; format: cell-based; conditions: IC50 (L929)/IC50 (T47D)
# Summary of the method: as §1
# [3] = Cytotoxicity MTT assay, L929; format: cell-based, mouse; conditions: mouse, L929 fibroblast cells; MTT, 48 hours
# Summary of the method: as §1
# SK-MEL-5 = experiment: NCI60 five-dose screen; format: cell-based, human; conditions: Homo sapiens
# BT-549 = experiment: NCI60 five-dose screen; format: cell-based; conditions: Homo sapiens, BT-549, breast cancer
# 786-0 = experiment: NCI60 five-dose screen; format: cell-based; conditions: Homo sapiens, 786-0, renal cancer
# HOP-92 = experiment: NCI60 five-dose screen; format: cell-based; conditions: Homo sapiens, HOP-92, NSC lung cancer
# [4] = read-out: LC50 (the source's name)
smiles,measurement,setting,value
"O=C(N/N=C/c1ccc[nH]1)c1[nH]c2ccc(Br)cc2c1-c1ccccc1 [Derivative 3a, (E)-N′-((1H-Pyrrol-2-yl)methylene)-5-bromo-3-phenyl-1H-indole-2-carbohydrazide]",GI50,MDA-MB-468,209 nM
same,CC50,MDA-MB-468; [4],42100 nM
same,GI50,HCT-116,280 nM
same,CC50,HCT-116; [4],32300 nM
same,CC50,"COLO 205; COLO 205, COLO 205, colon cancer, read-out: LC50 (the source's name)",35100 nM
same,GI50,"COLO 205; COLO 205, colon cancer",261 nM
same,GI50,CAKI-1,257 nM
same,CC50,CAKI-1; [4],30900 nM
same,GI50,RPMI-8226,337 nM
same,CC50,RPMI-8226; [4],> 100000 nM
same,GI50,CCRF-CEM,345 nM
same,CC50,CCRF-CEM; [4],> 100000 nM
same,GI50,ACHN,355 nM
same,CC50,ACHN; [4],21200 nM
same,GI50,IGROV1,404 nM
same,LC50 (concentration causing 50% net cell kill),IGROV1,14600 nM
same,GI50,TK-10,2460 nM
same,CC50,TK-10; [4],37100 nM
same,GI50,SNB-75,136 nM
same,CC50,SNB-75; [4],16000 nM
same,GI50,UACC-62,99 nM
same,CC50,UACC-62; [4],8030 nM
same,GI50,SN12C,371 nM
same,CC50,SN12C; [4],3970 nM
same,GI50,U251,375 nM
same,CC50,U251; [4],12400 nM
same,GI50,LOX IMVI,244 nM
same,CC50,LOX IMVI; [4],19000 nM
same,GI50,SF-268,995 nM
same,CC50,SF-268; [4],56400 nM
same,GI50,SK-MEL-2,357 nM
same,CC50,SK-MEL-2; [4],38800 nM
same,GI50,OVCAR-3,423 nM
same,CC50,OVCAR-3; [4],35300 nM
same,GI50,PC-3,344 nM
same,CC50,PC-3; [4],29600 nM
same,GI50,UO-31,431 nM
same,CC50,UO-31; [4],20200 nM
same,GI50,HOP-62,684 nM
same,CC50,HOP-62; [4],32600 nM
same,GI50,OVCAR-5,437 nM
same,CC50,OVCAR-5; [4],30800 nM
same,GI50,SK-MEL-28,488 nM
same,CC50,SK-MEL-28; [4],37400 nM
same,IC50,[1],1600 ± 1000 nM
same,GI50,HT29,329 nM
same,CC50,HT29; [4],9310 nM
same,GI50,A498,2570 nM
same,CC50,A498; [4],41600 nM
same,Selectivity index (SI),[2],16.4
same,IC50 at 48 h,[3],26300 ± 14500 nM
same,CC50,"SK-MEL-5; SK-MEL-5, SK-MEL-5, melanoma, read-out: LC50 (the source's name)",15700 nM
same,GI50,"SK-MEL-5; SK-MEL-5, melanoma",302 nM
same,GI50,BT-549,375 nM
same,CC50,BT-549; [4],6390 nM
same,GI50,786-0,791 nM
same,CC50,786-0; [4],23900 nM
same,GI50,HOP-92,992 nM
same,CC50,HOP-92; [4],26400 nM
